Test results reported in article PMC5564600 (Oncotarget, 2017).

Legend:
Test in all cases: biochemical
Format in all cases: binding
panel of 442 kinases [1] = biological target: T1, panel of 442 kinases (Homo sapiens, UniProt O94921); conditions: kinase PFTK1; for remaining activity at 1 µM: read-out: % of control at 1 µM
T1 construct: purchased Ambit Biosciences (scanMAXX KINOMEscan)

panel of 442 kinases [2] = biological target: T2, panel of 442 kinases (Homo sapiens, UniProt P20794); conditions: kinase MAK; for remaining activity at 1 µM: read-out: % of control at 1 µM
T2 construct: purchased Ambit Biosciences (scanMAXX KINOMEscan)
T2 sequence (P20794 1-623): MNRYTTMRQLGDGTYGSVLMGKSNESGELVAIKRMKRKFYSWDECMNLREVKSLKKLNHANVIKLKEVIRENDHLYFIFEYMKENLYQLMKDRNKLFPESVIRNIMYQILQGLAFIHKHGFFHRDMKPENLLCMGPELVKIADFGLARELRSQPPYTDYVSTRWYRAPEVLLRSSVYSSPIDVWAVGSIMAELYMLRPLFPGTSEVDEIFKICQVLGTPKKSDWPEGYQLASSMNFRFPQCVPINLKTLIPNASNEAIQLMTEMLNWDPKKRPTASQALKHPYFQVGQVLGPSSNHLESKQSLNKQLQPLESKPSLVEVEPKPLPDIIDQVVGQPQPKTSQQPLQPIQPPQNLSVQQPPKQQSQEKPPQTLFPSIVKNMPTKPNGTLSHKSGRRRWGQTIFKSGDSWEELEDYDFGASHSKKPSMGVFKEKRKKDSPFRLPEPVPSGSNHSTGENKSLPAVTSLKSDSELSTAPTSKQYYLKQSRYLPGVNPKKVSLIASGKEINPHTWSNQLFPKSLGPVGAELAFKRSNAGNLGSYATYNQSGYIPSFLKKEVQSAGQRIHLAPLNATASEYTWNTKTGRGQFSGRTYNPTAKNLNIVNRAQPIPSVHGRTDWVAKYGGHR

panel of 442 kinases [3] = biological target: T3, panel of 442 kinases (Homo sapiens, UniProt Q6P3R8); conditions: kinase NEK5; for remaining activity at 1 µM: read-out: % of control at 1 µM
T3 construct: purchased Ambit Biosciences (scanMAXX KINOMEscan)
T3 sequence (Q6P3R8 1-708): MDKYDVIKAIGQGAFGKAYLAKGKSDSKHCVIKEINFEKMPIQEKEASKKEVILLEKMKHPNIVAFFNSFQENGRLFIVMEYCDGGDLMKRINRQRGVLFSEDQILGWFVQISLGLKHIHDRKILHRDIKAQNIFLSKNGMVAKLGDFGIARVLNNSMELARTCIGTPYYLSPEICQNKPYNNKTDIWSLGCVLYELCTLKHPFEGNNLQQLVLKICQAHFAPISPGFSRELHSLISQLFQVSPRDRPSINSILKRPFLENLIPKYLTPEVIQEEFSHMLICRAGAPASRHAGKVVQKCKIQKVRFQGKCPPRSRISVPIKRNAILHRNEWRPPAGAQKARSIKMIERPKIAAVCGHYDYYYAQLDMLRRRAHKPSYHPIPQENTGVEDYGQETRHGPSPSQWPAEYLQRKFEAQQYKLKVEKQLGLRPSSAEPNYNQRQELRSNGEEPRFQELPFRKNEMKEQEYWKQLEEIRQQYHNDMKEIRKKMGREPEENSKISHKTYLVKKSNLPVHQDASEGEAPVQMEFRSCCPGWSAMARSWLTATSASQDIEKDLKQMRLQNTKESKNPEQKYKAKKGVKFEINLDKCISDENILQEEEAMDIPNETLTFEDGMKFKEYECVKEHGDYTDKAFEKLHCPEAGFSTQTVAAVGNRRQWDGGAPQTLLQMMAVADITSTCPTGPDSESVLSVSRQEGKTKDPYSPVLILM

panel of 442 kinases [4] = biological target: T4, panel of 442 kinases (Homo sapiens, UniProt P42680); conditions: kinase TEC; for remaining activity at 1 µM: read-out: TEC (% of control at 1 µM)
T4 construct: purchased Ambit Biosciences (scanMAXX KINOMEscan)
T4 sequence (P42680 1-631): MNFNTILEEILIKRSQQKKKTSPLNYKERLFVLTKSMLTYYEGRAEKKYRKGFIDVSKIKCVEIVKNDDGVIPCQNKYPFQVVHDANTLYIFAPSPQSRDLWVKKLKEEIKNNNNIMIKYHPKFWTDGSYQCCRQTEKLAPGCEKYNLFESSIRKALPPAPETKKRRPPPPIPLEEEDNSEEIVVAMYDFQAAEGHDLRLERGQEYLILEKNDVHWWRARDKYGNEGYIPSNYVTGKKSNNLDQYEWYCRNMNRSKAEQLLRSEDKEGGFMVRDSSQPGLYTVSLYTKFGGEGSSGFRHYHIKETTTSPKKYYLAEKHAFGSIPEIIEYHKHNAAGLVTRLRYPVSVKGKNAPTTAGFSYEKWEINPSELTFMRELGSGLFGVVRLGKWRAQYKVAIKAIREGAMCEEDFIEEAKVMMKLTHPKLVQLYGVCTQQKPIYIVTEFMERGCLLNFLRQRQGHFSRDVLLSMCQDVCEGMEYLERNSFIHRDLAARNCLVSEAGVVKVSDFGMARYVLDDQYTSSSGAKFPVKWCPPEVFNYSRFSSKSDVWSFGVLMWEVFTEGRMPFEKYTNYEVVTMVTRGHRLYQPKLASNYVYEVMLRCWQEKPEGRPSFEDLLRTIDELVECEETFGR

panel of 442 kinases [5] = biological target: T5, panel of 442 kinases (Homo sapiens, UniProt Q9Y463); conditions: DYRK1B; for remaining activity at 1 µM: read-out: % of control at 1 µM
T5 construct: purchased Ambit Biosciences (scanMAXX KINOMEscan)
T5 sequence (Q9Y463 whole entry): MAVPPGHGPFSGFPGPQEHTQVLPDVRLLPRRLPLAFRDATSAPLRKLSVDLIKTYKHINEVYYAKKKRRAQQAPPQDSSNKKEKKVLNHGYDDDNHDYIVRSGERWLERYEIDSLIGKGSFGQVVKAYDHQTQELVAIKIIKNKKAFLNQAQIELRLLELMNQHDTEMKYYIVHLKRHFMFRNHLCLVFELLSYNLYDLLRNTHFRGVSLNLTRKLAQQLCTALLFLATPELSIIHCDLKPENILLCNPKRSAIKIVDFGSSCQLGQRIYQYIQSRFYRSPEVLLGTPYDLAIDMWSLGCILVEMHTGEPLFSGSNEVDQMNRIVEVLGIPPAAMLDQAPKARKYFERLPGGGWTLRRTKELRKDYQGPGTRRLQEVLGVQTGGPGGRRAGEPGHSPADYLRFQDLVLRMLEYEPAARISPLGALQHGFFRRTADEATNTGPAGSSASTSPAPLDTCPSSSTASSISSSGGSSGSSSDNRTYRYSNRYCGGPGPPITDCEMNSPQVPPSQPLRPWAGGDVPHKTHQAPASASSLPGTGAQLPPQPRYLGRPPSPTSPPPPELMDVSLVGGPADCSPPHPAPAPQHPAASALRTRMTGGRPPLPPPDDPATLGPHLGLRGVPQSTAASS

[6] = 10 µM, read-out: % of control at 10 µM

T1 sequence (O94921 whole entry): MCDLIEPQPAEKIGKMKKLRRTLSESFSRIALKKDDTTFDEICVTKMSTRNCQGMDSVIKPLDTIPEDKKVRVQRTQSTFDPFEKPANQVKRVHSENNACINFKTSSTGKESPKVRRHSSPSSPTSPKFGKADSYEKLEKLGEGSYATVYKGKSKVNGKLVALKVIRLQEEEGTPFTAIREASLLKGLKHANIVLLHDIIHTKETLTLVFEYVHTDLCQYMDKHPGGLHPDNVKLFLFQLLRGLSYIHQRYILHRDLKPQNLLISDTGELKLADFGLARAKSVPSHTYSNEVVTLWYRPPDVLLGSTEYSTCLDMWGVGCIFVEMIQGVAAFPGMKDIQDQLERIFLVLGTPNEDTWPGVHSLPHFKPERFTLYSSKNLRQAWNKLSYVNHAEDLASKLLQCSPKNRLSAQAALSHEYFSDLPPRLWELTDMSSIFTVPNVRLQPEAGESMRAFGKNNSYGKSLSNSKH

Structure (SMILES) | remaining activity at 1 µM (panel of 442 kinases [1]) [%] | remaining activity at 10 µM (panel of 442 kinases [1]; [6]) [%] | remaining activity at 1 µM (panel of 442 kinases [2]) [%] | remaining activity at 10 µM (panel of 442 kinases [2]; [6]) [%] | remaining activity at 1 µM (panel of 442 kinases [3]) [%] | remaining activity at 10 µM (panel of 442 kinases [3]; [6]) [%] | remaining activity at 1 µM (panel of 442 kinases [4]) [%] | remaining activity at 10 µM (panel of 442 kinases [4]; 10 µM, read-out: TEC (% of control at 10 µM)) [%] | remaining activity at 1 µM (panel of 442 kinases [5]) [%] | remaining activity at 10 µM (panel of 442 kinases [5]; [6]) [%]
Nc1cc(C(F)(F)F)c(-c2cc(N3CCOCC3)nc(N3CCOCC3)n2)cn1 [Buparlisib] | 100 | 97 | 98 | 89 | 100 | 88 | 87 | 100 | 86 | 100
Cn1c(=O)n(-c2ccc(C(C)(C)C#N)cc2)c2c3cc(-c4cnc5ccccc5c4)ccc3ncc21 [Dactolisib, 2-methyl-2-[4-(3-methyl-2-oxo-8-quinolin-3-yl-2,3-dihydroimidazo[4,5-c]quinolin-1-yl)-phenyl] propionitrile] | 98 | – | 64 | – | 62 | – | 96 | – | 93 | –
COc1ncc(-c2ccc3nccc(-c4ccnnc4)c3c2)cc1NS(=O)(=O)c1ccc(F)cc1F [Omipalisib] | 97 | – | 71 | – | 100 | – | 100 | – | 88 | –
FC(F)c1nc2ccccc2n1-c1nc(N2CCOCC2)nc(N2CCOCC2)n1 [ZSTK474, 2-(difluoromethyl)-1-[4,6-di(4-morpholinyl)-1,3,5-triazin-2-yl]-1H-benzimidazole] | 100 | – | 87 | – | 89 | – | 89 | – | 97 | –
